Source: publication PMC11061835, “Elucidating the Mechanism of Metabolism of Cannabichromene by Human Cytochrome P450s” (Journal of Natural Products, 2024)
Several values for one entry are separate records, joined by “and”; a condition that tells them apart may be missing. Equal values may be shown once.

Key:
CYP3A4 with CPR = target: T1, CYP3A4 with CPR (Homo sapiens, UniProt P08684); experiment: NADPH activity assay, CYP3A4 with CPR; type: biochemical; conditions: CYP3A4, CBC 50 μM vs substrate-free
T1 construct: His-tag; made in house; host or cells: E. coli DH-5α with pTGro7 plasmid (CYP)
Experimental: CYP-mediated NADPH oxidation was measured using kinetics mode in a Cary 300 UV–vis spectrometer (Agilent Technologies). 0.2 μM (final concentration) of CYP was taken in 0.1 M potassium phosphate buffer (pH 7.4) and incubated with 0.6 μM (final concentration) of CPR for 5 min with a reaction volume of 400 μL. The reaction was initiated with 200 μM of NADPH, and the absorption change was monitored over 10 min at 340 nm. The rate of NADPH consumption (or NADPH to NADP^+ conversion) was calculated by taking the molar extinction coefficient as 6.22 mM^–1 cm^–1 at 340 nm. To estimate the change in NADPH oxidation in the presence of CBC, both CYP and CPR were further incubated using CBC (final concentration 50 μM) for 5 min followed by measuring the change in absorbance at 340 nm as discussed earlier.

[1] = target: T2, CYP2C8 in the presence of CPR (Homo sapiens, UniProt P10632); experiment: Spectroscopic titration, CYP2C8–CPR complex; type: binding
T2 construct: His-tag; made in house; host or cells: E. coli DH-5α with pTGro7 plasmid (CYP)
T2 sequence (P10632 1-490): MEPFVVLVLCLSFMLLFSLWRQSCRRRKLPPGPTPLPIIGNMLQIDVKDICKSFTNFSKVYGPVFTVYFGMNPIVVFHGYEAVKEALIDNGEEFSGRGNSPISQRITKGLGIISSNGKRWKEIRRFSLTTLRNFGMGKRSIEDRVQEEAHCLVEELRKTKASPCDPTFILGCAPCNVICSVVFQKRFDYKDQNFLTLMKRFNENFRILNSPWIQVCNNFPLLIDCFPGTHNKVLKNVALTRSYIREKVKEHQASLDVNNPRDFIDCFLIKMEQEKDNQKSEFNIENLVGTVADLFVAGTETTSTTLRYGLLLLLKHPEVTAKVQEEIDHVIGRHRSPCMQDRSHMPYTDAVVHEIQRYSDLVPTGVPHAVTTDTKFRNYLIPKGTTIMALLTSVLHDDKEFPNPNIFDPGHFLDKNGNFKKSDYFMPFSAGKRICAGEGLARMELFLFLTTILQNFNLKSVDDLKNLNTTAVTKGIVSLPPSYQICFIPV
T2 sequence (P16435 1-677 partner): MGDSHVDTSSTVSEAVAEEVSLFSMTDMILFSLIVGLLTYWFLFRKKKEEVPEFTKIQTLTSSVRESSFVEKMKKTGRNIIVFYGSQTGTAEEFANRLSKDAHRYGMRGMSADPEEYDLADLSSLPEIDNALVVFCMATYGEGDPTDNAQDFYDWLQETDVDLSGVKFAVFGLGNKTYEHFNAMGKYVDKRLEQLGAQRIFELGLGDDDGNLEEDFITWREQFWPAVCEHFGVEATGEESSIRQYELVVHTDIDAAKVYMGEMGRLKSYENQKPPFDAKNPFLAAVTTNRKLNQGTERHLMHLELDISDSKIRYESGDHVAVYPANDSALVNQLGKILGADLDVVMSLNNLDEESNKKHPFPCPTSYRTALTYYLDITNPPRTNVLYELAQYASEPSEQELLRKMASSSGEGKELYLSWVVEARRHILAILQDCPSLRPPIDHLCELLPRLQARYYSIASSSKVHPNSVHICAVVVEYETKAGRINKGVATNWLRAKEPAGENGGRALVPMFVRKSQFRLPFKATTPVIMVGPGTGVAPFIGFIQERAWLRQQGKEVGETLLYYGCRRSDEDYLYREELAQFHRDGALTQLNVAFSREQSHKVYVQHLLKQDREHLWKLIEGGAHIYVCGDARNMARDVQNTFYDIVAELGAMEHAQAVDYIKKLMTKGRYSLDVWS
Experimental: (§1) For CBC titration to CYP–CPR complex, initially CYPs were dissolved in 400 μL of 0.1 M phosphate buffer (pH = 7.4) keeping the concentration between […]. Following this 50 μL of CPR (50 μM stock) was added to both cuvettes, and the final concentration of both of the proteins was 5–6 μM. Both proteins were initially mixed and incubated for 5 min followed by titration with CBC in the same process as mentioned above. The substrate-bound spectra were then subtracted from substrate-free spectra, and the extent of binding was analyzed using Origin Pro 2020.

[2] = target: T3, CYP3A4 in the presence of CPR (Homo sapiens, UniProt P08684); experiment: Spectroscopic titration, CYP3A4–CPR complex; type: binding
T3 construct: His-tag; made in house; host or cells: E. coli DH-5α with pTGro7 plasmid (CYP)
Experimental: as §1

[3] = target: cannabinoid receptor 2 (CB2); parameters: method as in PMID 31368508; conditions: agonist; cited from earlier work
[4] = parameters: method as in PMID 28640062; conditions: patients who consumed a CBD oil, cited from earlier work

T3 sequence (P08684 whole entry, one chain of several): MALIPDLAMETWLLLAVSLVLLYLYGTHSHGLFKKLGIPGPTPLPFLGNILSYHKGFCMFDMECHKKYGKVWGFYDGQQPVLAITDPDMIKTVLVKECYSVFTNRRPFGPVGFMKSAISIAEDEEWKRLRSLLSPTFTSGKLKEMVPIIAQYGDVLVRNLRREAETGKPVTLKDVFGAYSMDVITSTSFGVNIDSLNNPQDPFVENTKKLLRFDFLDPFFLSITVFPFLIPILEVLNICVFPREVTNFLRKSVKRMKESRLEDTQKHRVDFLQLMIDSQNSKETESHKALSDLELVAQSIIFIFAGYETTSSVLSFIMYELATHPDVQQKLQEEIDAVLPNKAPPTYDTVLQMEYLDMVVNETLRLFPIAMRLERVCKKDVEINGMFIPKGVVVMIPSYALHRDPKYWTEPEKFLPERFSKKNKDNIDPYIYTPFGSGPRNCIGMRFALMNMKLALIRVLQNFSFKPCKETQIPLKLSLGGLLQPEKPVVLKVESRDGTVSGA
T1 sequence (P08684 whole entry, one chain of several): as above

CCCCCc1cc(O)c2c(c1)OC(C)(CCC=C(C)C)C=C2 (centres unmarked) [CBC, Cannabichromene]
percentage increase of NADPH consumption in the presence of CBC (CYP3A4 with CPR): ~15% | ΔAmax (spin state change due to heme perturbation) [1]: 0.14 ± 0.00 and ~0.15 | Kd ([1]; read-out: Kd(app)): 8.23 µM and ~8 µM and < 10 µM | ΔAmax (spin state change due to heme perturbation) [2]: 0.03 ± 0.00 and 0.03–0.04 | Kd ([2]; read-out: Kd(app)): 1.66 µM and ~1.6 µM and < 10 µM | Ki [3]: ~0.1 µM | detectable level of CBC in plasma ([4]; plasma): ~60 ng/mL | detectable level of CBC in urine ([4]; urine): ~94 ng/mL
